Target: T1, P2X7 receptor (Homo sapiens, UniProt Q99572)
T1 construct: host or cells: SH-SY5Y
T1 sequence (Q99572 1-595): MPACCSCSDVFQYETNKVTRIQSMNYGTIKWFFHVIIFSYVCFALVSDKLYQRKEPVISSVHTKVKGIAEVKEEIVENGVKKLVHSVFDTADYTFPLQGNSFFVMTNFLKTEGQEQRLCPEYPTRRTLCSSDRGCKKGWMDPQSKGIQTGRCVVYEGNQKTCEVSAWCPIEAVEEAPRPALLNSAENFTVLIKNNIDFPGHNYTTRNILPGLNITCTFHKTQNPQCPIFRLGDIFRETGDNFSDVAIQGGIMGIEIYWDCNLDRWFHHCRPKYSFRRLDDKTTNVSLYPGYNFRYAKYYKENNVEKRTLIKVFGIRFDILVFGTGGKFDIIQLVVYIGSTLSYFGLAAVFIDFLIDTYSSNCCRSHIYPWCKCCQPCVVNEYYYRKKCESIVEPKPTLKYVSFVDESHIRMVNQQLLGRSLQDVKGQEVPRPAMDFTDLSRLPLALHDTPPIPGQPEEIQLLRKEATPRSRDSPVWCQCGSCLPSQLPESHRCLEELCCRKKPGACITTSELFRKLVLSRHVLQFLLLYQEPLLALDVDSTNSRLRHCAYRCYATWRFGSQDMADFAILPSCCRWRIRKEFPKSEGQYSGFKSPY
Experiment: High throughput P2X7 calcium mobilization assay (Example 4A)
Type: cell-based
Settings: SH-SY5Y cells; 50% decrease in fluorescence response of cells exposed to 80 μM BzATP; Table I
Summary of the method: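 Calcium mobilization read by FLIPR as peak fluorescence over 2 min after adding BzATP to a final 80 μM (about EC50). Beforehand, Fluo-4 AM-loaded SH-SY5Y cells sat 1 h at room temperature with compound at 1–2500 nM in pH 7.4 sucrose/HEPES buffer; signal minus no-agonist wells.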

## Nc1nc(-n2cc(C(=O)NCC3(c4ccc(Cl)cc4)CCCCC3)c(C(F)(F)F)n2)ncc1F [Compound 141, 1-(4-amino-5-fluoropyrimidin-2-yl)-N-{[1-(4-chlorophenyl)cyclohexyl]methyl}-3-(trifluoromethyl)-1H-pyrazole-4-carboxamide]
  IC50: ≤ 2000 nM

## Cn1ccnc1-n1cc(C(=O)NCC23CC4CC(CC(C4)C2)C3)c(C(F)(F)F)n1 [Compound 142, N-(adamantan-1-ylmethyl)-1-(1-methyl-1H-imidazol-2-yl)-3-(trifluoromethyl)-1H-pyrazole-4-carboxamide]
  IC50: ≤ 2000 nM

## COc1ccc(-n2cc(C(=O)NCC34CC5CC(CC(C5)C3)C4)c(C(C)C)n2)nn1 [Compound 143, N-(adamantan-1-ylmethyl)-3-isopropyl-1-(6-methoxypyridazin-3-yl)-1H-pyrazole-4-carboxamide]
  IC50: ≤ 2000 nM

## Nc1nc(-n2cc(C(=O)NCC3(N4CCOCC4)CCCCC3)c(C(F)(F)F)n2)ncc1F [Compound 144, 1-(4-amino-5-fluoropyrimidin-2-yl)-N-[(1-morpholin-4-ylcyclohexyl)methyl]-3-(trifluoromethyl)-1H-pyrazole-4-carboxamide]
  IC50: ≤ 2000 nM

## O=C(NCC12CC3CC(CC(C3)C1)C2)c1cn(-c2ncccn2)nc1C1CC1 [Compound 145, N-(adamantan-1-ylmethyl)-3-cyclopropyl-1-pyrimidin-2-yl-1H-pyrazole-4-carboxamide]
  IC50: ≤ 2000 nM

## Nc1ccnc(-n2cc(C(=O)NCC34CC5CC(CC(C5)C3)C4)c(C3CC3)n2)n1 [Compound 146, N-(adamantan-1-ylmethyl)-1-(4-aminopyrimidin-2-yl)-3-cyclopropyl-1H-pyrazole-4-carboxamide]
  IC50: ≤ 2000 nM

## Nc1nccnc1-n1cc(C(=O)NCC23CC4CC(CC(C4)C2)C3)c(C(F)(F)F)n1 [Compound 147, N-(adamantan-1-ylmethyl)-1-(3-aminopyrazin-2-yl)-3-(trifluoromethyl)-1H-pyrazole-4-carboxamide]
  IC50: ≤ 2000 nM

## Nc1cnc(-n2cc(C(=O)NCC34CC5CC(CC(C5)C3)C4)c(C(F)(F)F)n2)cn1 [Compound 148, N-(adamantan-1-ylmethyl)-1-(5-aminopyrazin-2-yl)-3-(trifluoromethyl)-1H-pyrazole-4-carboxamide]
  IC50: ≤ 2000 nM

## CC(CNC(=O)c1cn(-c2ncc(F)c(N)n2)nc1C(F)(F)F)c1ccc(Cl)cc1 (stereo not drawn) [Compound 149, 1-(4-amino-5-fluoropyrimidin-2-yl)-N-[2-(4-chlorophenyl)propyl]-3-(trifluoromethyl)-1H-pyrazole-4-carboxamide]
  IC50: ≤ 2000 nM

## CCCC(CNC(=O)c1cn(-c2ncc(F)c(N)n2)nc1C(F)(F)F)c1ccc(Cl)cc1 (stereo not drawn) [Compound 150, 1-(4-amino-5-fluoropyrimidin-2-yl)-N-[2-(4-chlorophenyl)pentyl]-3-(trifluoromethyl)-1H-pyrazole-4-carboxamide]
  IC50: ≤ 2000 nM

## O=C(NCC1(c2cccnc2)CCCCC1)c1cn(-c2ncccn2)nc1C(F)(F)F [Compound 151, N-[(1-pyridin-3-ylcyclohexyl)methyl]-1-pyrimidin-2-yl-3-(trifluoromethyl)-1H-pyrazole-4-carboxamide]
  IC50: ≤ 2000 nM

## O=C(NCC1(c2cccnc2)CCCCC1)c1cn(-c2ncc(F)cn2)nc1C(F)(F)F [Compound 152, 1-(5-fluoropyrimidin-2-yl)-N-[(1-pyridin-3-ylcyclohexyl)methyl]-3-(trifluoromethyl)-1H-pyrazole-4-carboxamide]
  IC50: ≤ 2000 nM

## O=C(NCC12CC3CC(CC(C3)C1)C2)c1cn(-c2cc(=O)[nH]cn2)nc1C(F)(F)F [Compound 153, N-(adamantan-1-ylmethyl)-1-(6-oxo-1,6-dihydropyrimidin-4-yl)-3-(trifluoromethyl)-1H-pyrazole-4-carboxamide]
  IC50: ≤ 2000 nM

## Nc1nc(-n2cc(C(=O)NCC3(O)CCCCCC3)c(C(F)(F)F)n2)ncc1F [Compound 154, 1-(4-amino-5-fluoropyrimidin-2-yl)-N-[(1-hydroxycycloheptyl)methyl]-3-(trifluoromethyl)-1H-pyrazole-4-carboxamide]
  IC50: ≤ 2000 nM

## Nc1ccnc(-n2cc(C(=O)NCC3(c4cccnc4)CCCCC3)c(C(F)(F)F)n2)n1 [Compound 155, 1-(4-aminopyrimidin-2-yl)-N-[(1-pyridin-3-ylcyclohexyl)methyl]-3-(trifluoromethyl)-1H-pyrazole-4-carboxamide]
  IC50: ≤ 2000 nM

## Cc1cnc(-n2cc(C(=O)NCC3(c4cccnc4)CCCCC3)c(C(F)(F)F)n2)nc1N [Compound 156, 1-(4-amino-5-methylpyrimidin-2-yl)-N-[(1-pyridin-3-ylcyclohexyl)methyl]-3-(trifluoromethyl)-1H-pyrazole-4-carboxamide]
  IC50: ≤ 2000 nM

## Nc1nccnc1-n1cc(C(=O)NCC2(c3cccnc3)CCCCC2)c(C(F)(F)F)n1 [Compound 157, 1-(3-aminopyrazin-2-yl)-N-[(1-pyridin-3-ylcyclohexyl)methyl]-3-(trifluoromethyl)-1H-pyrazole-4-carboxamide]
  IC50: ≤ 2000 nM

## Cc1ccc(C2(CNC(=O)c3sc(-c4ncccn4)nc3C(F)(F)F)CCCCC2)cn1 [Compound 158, N-{[1-(6-methylpyridin-3-yl)cyclohexyl]methyl}-2-pyrimidin-2-yl-4-(trifluoromethyl)-1,3-thiazole-5-carboxamide]
  IC50: ≤ 2000 nM

## O=C(NCC1(N2CCOCC2)CCCCC1)c1sc(-c2ncccn2)nc1C(F)(F)F [Compound 159, N-[(1-morpholin-4-ylcyclohexyl)methyl]-2-pyrimidin-2-yl-4-(trifluoromethyl)-1,3-thiazole-5-carboxamide]
  IC50: ≤ 2000 nM

## CCCC(CNC(=O)c1sc(-c2ncccn2)nc1C(F)(F)F)c1ccc(Cl)cc1 (stereo not drawn) [Compound 160, N-[2-(4-chlorophenyl)pentyl]-2-pyrimidin-2-yl-4-(trifluoromethyl)-1,3-thiazole-5-carboxamide]
  IC50: ≤ 2000 nM

## O=C(NCC1(c2cccnc2)CCCCC1)c1sc(-c2ncccn2)nc1C(F)(F)F [Compound 161, N-[(1-pyridin-3-ylcyclohexyl)methyl]-2-pyrimidin-2-yl-4-(trifluoromethyl)-1,3-thiazole-5-carboxamide]
  IC50: ≤ 2000 nM

## N[C@@H]1CCN(C2(CNC(=O)c3sc(-c4ncccn4)nc3C(F)(F)F)CCCCC2)C1 [Compound 162, N-({1-[(3R)-3-aminopyrrolidin-1-yl]cyclohexyl}methyl)-2-pyrimidin-2-yl-4-(trifluoromethyl)-1,3-thiazole-5-carboxamide]
  IC50: ≤ 2000 nM

## CC(C)CC(CNC(=O)c1sc(N2CC[C@@H](N(C)C)C2)nc1C(F)(F)F)c1ccc(C(F)(F)F)cc1 (stereo partly drawn) [Compound 163, 2-[(3R)-3-(dimethylamino)pyrrolidin-1-yl]-N-{4-methyl-2-[4-(trifluoromethyl)phenyl]pentyl}-4-(trifluoromethyl)-1,3-thiazole-5-carboxamide]
  IC50: ≤ 2000 nM

## O=C(NCC1(c2cccnc2)CCCCC1)c1sc(-c2cccnc2)nc1C(F)(F)F [Compound 164, 2-pyridin-3-yl-N-[(1-pyridin-3-ylcyclohexyl)methyl]-4-(trifluoromethyl)-1,3-thiazole-5-carboxamide]
  IC50: ≤ 2000 nM

## CC(C)CC(CNC(=O)c1sc(-c2cccnc2)nc1C(F)(F)F)c1ccc(C(F)(F)F)cc1 (stereo not drawn) [Compound 165, N-{4-methyl-2-[4-(trifluoromethyl)phenyl]pentyl}-2-pyridin-3-yl-4-(trifluoromethyl)-1,3-thiazole-5-carboxamide]
  IC50: ≤ 2000 nM

## CCc1nc(-c2cccnc2)sc1C(=O)NCC1(c2cccnc2)CCCCC1 [Compound 166, 4-ethyl-2-pyridin-3-yl-N-[(1-pyridin-3-ylcyclohexyl)methyl]-1,3-thiazole-5-carboxamide]
  IC50: ≤ 2000 nM

## Nc1nc(-n2cc(C(=O)NCC3(c4ccc(Cl)cc4)CCC3)c(C(F)(F)F)n2)ncc1F [Compound 167, 1-(4-amino-5-fluoropyrimidin-2-yl)-N-{[1-(4-chlorophenyl)cyclobutyl]methyl}-3-(trifluoromethyl)-1H-pyrazole-4-carboxamide]
  IC50: ≤ 2000 nM

## COc1ccc(C2(CNC(=O)c3cn(-c4ncc(F)c(N)n4)nc3C(F)(F)F)CCCCC2)cc1 [Compound 168, 1-(4-amino-5-fluoropyrimidin-2-yl)-N-{[1-(4-methoxyphenyl)cyclohexyl]methyl}-3-(trifluoromethyl)-1H-pyrazole-4-carboxamide]
  IC50: ≤ 2000 nM

## Nc1nc(-n2cc(C(=O)NCC(O)C34CC5CC(CC(C5)C3)C4)c(C(F)(F)F)n2)ncc1F (stereo not drawn) [Compound 169, N-(2-adamantan-1-yl-2-hydroxyethyl)-1-(4-amino-5-fluoropyrimidin-2-yl)-3-(trifluoromethyl)-1H-pyrazole-4-carboxamide]
  IC50: ≤ 2000 nM

## Cc1cnc(-n2cc(C(=O)NCC3(c4ccc(C(F)(F)F)cc4)CCCCC3)c(C)n2)nc1N [Compound 170, 1-(4-amino-5-methylpyrimidin-2-yl)-3-methyl-N-({1-[4-(trifluoromethyl)phenyl]cyclohexyl}methyl)-1H-pyrazole-4-carboxamide]
  IC50: ≤ 2000 nM

Source: patent US9133204B2, “5-membered heterocyclic amides and related compounds” (H. Lundbeck A/S, priority 2007, dated 2015)
